{"source": "patent US20230131025A1", "about": "“QUINOLYL PHOSPHINE OXIDE COMPOUND, AND COMPOSITION AND APPLICATION THEREOF” (Betta Pharmaceuticals Co., Ltd., priority 2020, published 2023)", "key": {"Ba/F3-Δ19del/T790M/C797S": {"biological_target": "Ba/F3-Δ19del/T790M/C797S (Homo sapiens, UniProt P00533, T790M/C797S, cells depend on it, form not given)", "sequence (P00533 with tags, fused parts or gaps DEL746-750/T790M/C797S, form open)": "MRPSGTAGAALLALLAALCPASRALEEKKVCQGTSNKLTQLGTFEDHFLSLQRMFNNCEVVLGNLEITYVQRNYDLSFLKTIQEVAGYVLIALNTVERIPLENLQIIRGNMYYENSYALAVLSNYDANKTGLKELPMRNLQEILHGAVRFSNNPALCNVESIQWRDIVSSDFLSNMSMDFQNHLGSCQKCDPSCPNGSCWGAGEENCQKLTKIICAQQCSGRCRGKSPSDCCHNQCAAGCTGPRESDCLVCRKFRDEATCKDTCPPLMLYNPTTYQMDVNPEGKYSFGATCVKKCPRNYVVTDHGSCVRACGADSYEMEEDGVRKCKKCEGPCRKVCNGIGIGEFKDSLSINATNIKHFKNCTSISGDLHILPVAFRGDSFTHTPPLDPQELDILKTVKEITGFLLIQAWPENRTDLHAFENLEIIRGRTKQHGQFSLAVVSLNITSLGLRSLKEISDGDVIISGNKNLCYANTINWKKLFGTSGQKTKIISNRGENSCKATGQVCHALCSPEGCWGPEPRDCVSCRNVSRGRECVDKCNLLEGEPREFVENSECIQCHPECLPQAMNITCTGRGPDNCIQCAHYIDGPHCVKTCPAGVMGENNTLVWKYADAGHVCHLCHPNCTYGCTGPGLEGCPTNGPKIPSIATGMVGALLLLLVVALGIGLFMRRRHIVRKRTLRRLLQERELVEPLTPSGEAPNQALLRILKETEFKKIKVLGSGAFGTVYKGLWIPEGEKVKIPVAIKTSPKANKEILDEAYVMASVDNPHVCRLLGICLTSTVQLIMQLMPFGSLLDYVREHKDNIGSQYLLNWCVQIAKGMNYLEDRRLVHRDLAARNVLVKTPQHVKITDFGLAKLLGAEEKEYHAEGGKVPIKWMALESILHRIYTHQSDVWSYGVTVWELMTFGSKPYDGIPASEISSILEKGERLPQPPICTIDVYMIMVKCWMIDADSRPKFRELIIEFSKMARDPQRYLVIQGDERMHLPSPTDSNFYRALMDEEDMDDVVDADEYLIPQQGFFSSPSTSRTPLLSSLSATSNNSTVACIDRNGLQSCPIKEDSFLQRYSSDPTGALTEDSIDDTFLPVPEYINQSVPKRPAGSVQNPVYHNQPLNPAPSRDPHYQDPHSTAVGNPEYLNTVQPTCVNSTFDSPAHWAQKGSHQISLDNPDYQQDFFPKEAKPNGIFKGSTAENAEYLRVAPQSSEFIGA", "assay": "Cell proliferation experiment (CellTiter Glo, 72 hours)", "format": "cell-based", "conditions": "read-out: Ba/F3/EGFR Δ19del/T790M/C797S IC50", "in_short": "(§1)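 Ba/F3 cells overexpressing EGFR Δ19del/T790M/C797S or EGFR WT were seeded at 2000 or 3000 cells/well and exposed 72 h to 9 compound concentrations (3-fold, top 10000 or 1111 nM final, 0.1% DMSO). CellTiter-Glo luminescence gave survival inhibition versus controls; IC50 from nonlinear fit.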"}, "Ba/F3 EGFR WT": {"biological_target": "Ba/F3 EGFR WT (Homo sapiens, UniProt P00533)", "assay": "Cell proliferation experiment (CellTiter Glo, 72 hours)", "format": "cell-based", "conditions": "read-out: BaF3 EGFR WT IC50", "in_short": "as §1"}, "[1]": {"assay": "In vivo safety experiment (body weight, tolerance)", "description": "The safety evaluation of the drug was carried out in BALB/c nude mice. […] They were fed in an SPF environment, and each cage was individually ventilated (5 mice per cage). All cages, bedding and water were disinfected prior to use. Mice were purchased from Viton Lever and were allowed to acclimate in the laboratory. Mice were administered orally QD."}, "[2]": {"test_system": "human epidermal cancer cells A431 carrying EGFR WT", "assay": "Cell proliferation experiment (CellTiter Glo, 72 hours)", "format": "cell-based", "conditions": "Homo sapiens, A-431", "in_short": "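Cells seeded at 2000 or 3000/well and exposed 72 h to 9-point 3-fold dilutions, top final 10000 nM or 1111 nM, 0.1% DMSO. Viability by CellTiter-Glo luminescence. Inhibition relative to cell and medium controls; IC50 by four-parameter nonlinear regression.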"}, "EGFR WT": {"biological_target": "EGFR WT (Homo sapiens, UniProt P00533)", "sequence (P00533 25-1210)": "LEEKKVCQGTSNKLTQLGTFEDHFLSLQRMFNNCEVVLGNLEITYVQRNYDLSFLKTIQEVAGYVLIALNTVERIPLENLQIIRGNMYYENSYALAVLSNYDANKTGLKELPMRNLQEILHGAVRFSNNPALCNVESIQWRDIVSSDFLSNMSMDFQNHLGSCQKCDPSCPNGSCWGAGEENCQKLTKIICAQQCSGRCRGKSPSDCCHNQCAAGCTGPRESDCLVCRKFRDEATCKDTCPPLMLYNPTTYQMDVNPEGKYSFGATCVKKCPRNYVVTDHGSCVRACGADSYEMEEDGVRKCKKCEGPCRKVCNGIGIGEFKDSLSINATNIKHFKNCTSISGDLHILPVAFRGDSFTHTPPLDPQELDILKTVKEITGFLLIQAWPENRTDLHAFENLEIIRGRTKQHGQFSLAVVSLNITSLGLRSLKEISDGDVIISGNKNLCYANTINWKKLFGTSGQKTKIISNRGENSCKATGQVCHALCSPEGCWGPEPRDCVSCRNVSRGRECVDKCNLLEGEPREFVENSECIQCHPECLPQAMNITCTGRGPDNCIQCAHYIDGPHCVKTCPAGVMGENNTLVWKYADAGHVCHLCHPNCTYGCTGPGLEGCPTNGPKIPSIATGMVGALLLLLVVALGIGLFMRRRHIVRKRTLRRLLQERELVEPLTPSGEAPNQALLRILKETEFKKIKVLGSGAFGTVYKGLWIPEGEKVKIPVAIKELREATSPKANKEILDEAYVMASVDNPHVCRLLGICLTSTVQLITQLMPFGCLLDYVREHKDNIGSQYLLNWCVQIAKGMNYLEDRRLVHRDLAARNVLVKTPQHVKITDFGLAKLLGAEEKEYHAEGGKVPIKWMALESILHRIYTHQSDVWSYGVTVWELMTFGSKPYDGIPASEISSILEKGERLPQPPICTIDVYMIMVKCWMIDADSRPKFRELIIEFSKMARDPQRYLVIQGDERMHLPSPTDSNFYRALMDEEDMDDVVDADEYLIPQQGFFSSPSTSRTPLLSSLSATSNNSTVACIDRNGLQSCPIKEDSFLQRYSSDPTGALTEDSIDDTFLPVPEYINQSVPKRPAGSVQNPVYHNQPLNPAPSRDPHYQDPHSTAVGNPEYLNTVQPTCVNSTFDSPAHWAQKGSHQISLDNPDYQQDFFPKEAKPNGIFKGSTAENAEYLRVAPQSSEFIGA", "assay": "Kinase inhibition assay (mobility shift)", "format": "biochemical", "in_short": "(§2)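 Caliper mobility-shift read of substrate conversion after kinase-compound preincubation 10 min at room temperature, then ATP/substrate addition and reaction at room temperature. Ten-point 3-fold dilutions from 3,000 or 100 nM top; IC50 from variable-slope four-parameter fit of percent inhibition.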"}, "EGFR Δ19del/T790M/C797S": {"biological_target": "EGFR Δ19del/T790M/C797S (Homo sapiens, UniProt P00533, T790M/C797S, form not given)", "sequence (P00533 with tags, fused parts or gaps DEL746-750/T790M/C797S, form open)": "as the sequence (P00533 with tags, fused parts or gaps DEL746-750/T790M/C797S, form open) above", "assay": "Kinase inhibition assay (mobility shift)", "format": "biochemical", "in_short": "as §2"}, "IGF1R": {"biological_target": "IGF1R (Homo sapiens, UniProt P08069)", "sequence (P08069 31-1367, species assumed)": "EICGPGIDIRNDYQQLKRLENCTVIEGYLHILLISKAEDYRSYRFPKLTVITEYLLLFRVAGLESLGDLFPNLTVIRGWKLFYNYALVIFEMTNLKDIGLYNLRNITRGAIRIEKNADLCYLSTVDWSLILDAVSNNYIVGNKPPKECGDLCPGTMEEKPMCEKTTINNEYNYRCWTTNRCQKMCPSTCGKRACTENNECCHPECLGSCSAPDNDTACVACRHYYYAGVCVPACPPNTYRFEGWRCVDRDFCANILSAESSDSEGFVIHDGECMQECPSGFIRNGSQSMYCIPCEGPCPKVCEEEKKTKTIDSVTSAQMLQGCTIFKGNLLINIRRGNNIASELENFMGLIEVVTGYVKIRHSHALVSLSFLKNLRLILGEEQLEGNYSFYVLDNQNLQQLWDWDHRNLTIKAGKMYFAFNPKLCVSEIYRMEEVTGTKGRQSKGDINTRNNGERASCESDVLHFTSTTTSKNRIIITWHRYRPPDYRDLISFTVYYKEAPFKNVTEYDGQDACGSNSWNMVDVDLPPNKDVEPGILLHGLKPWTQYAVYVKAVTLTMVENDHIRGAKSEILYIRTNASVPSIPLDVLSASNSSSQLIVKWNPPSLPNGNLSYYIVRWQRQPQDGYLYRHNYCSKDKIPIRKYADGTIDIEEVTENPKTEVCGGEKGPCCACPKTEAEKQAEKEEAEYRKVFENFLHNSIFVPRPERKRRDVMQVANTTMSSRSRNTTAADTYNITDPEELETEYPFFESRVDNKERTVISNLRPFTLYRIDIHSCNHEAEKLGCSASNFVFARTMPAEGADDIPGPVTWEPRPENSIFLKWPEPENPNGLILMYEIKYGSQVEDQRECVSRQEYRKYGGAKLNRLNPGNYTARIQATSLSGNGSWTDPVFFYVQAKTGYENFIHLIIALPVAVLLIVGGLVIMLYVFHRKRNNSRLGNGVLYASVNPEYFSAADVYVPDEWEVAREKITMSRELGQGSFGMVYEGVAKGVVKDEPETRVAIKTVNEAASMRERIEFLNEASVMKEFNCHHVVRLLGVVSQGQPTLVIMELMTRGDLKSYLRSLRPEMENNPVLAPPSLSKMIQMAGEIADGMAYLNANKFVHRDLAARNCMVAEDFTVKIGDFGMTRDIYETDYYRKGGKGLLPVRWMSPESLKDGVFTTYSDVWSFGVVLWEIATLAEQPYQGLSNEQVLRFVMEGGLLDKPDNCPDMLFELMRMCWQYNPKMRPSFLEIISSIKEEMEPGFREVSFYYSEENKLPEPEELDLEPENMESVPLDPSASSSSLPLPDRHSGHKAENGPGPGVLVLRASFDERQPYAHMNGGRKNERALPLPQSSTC", "assay": "Kinase inhibition assay (mobility shift)", "format": "biochemical", "in_short": "as §2"}}, "data": [{"compound": "COc1cc(N2CCC(N3CCN(C)CC3)CC2)c(C)cc1Nc1ncc(Br)c(Nc2ccc3nc(C4CC4)ccc3c2P(C)(C)=O)n1", "note": "[Compound J-022, (6-((5-Bromo-2-((2-methoxy-5-methyl-4-(4-(4-methylpiperazin-1-yl)piperidin-1-yl)phenyl)amino)pyrimidin-4-yl)amino)-2-cyclopropylquinolin-5-yl)dimethylphosphine oxide]", "values": [{"measurement": "GI50", "setting": "Ba/F3-Δ19del/T790M/C797S", "value": 6.8, "unit": "nM"}, {"measurement": "GI50", "setting": "Ba/F3 EGFR WT", "value": 151, "unit": "nM"}, {"measurement": "Body weight of mouse", "setting": "[1]; 75 mg/kg/day oral QD, 0 days", "value": 18.7, "unit": "g"}, {"measurement": "Body weight of mouse", "setting": "[1]; 75 mg/kg/day oral QD, 2 days", "value": 18.9, "unit": "g"}, {"measurement": "Body weight of mouse", "setting": "[1]; 75 mg/kg/day oral QD, 4 days", "value": 19.2, "unit": "g"}, {"measurement": "Body weight of mouse", "setting": "[1]; 75 mg/kg/day oral QD, 6 days", "value": 19.4, "unit": "g"}, {"measurement": "Body weight of mouse", "setting": "[1]; 100 mg/kg/day oral QD, 0 days", "value": 18.7, "unit": "g"}, {"measurement": "Body weight of mouse", "setting": "[1]; 100 mg/kg/day oral QD, 2 days", "value": 18.6, "unit": "g"}, {"measurement": "Body weight of mouse", "setting": "[1]; 100 mg/kg/day oral QD, 4 days", "value": 19.0, "unit": "g"}, {"measurement": "Body weight of mouse", "setting": "[1]; 100 mg/kg/day oral QD, 6 days", "value": 19.2, "unit": "g"}, {"measurement": "Body weight of mouse", "setting": "[1]; 150 mg/kg/day oral QD, 0 days", "value": 18.7, "unit": "g"}, {"measurement": "Body weight of mouse", "setting": "[1]; 150 mg/kg/day oral QD, 2 days", "value": 18.3, "unit": "g"}, {"measurement": "Body weight of mouse", "setting": "[1]; 150 mg/kg/day oral QD, 4 days", "value": 18.5, "unit": "g"}, {"measurement": "Body weight of mouse", "setting": "[1]; 150 mg/kg/day oral QD, 6 days", "value": 18.4, "unit": "g"}, {"measurement": "Change in the body weight of mice", "setting": "[1]; 150 mg/kg/day oral, 7 days", "value": "no significant change"}, {"measurement": "Tolerability", "setting": "[1]; 150 mg/kg/day, 7 days", "value": "tolerable"}, {"measurement": "window from the effective dose to the intolerance dose", "setting": "[1]; effective dose = dose corresponding to 50% TGI", "value": "greater than 15 times"}, {"measurement": "IC50", "setting": "[2]", "value": 1130, "unit": "nM"}, {"measurement": "IC50", "setting": "EGFR WT", "value": 20.2, "unit": "nM"}, {"measurement": "IC50", "setting": "EGFR Δ19del/T790M/C797S", "value": 0.3, "unit": "nM"}, {"measurement": "IC50", "setting": "IGF1R", "value": 195, "unit": "nM"}]}]}
